Measured values published in article PMC8138939 (Clinical pharmacology and therapeutics, 2020).
Read-outs that look alike come from different tables or passages of the source. Marks after values point to notes of the source that are not given here.

Assays:
[1] = system: plasma protein (AAG); settings: cited from earlier work; for fu, predominant plasma binding protein: AAG, ref [15],[16]
[2] = with vs without ritonavir; day 8; cited from earlier work
[3] = molecular target: T1, CYP3A7 (Homo sapiens, UniProt P24462); settings: ref [18], cited from earlier work
[4] = cited from earlier work; for DMS AUC Observed / Sildenafil AUC Observed: geometric mean
[5] = Adult sildenafil/DMS PBPK population simulations; design: species or system human
[6] = molecular target: T2, CYP3A5 (Homo sapiens, UniProt P20815); settings: cited from earlier work
[7] = ref [46]; cited from earlier work
[8] = molecular target: T3, CYP3A4 (Homo sapiens, UniProt P08684); settings: cited from earlier work
[9] = molecular target: T3, CYP3A4; assay: Fluconazole inhibition of 6β-hydroxytestosterone formation, recombinant CYP3A4; type: biochemical
[10] = molecular target: T1, CYP3A7; assay: Fluconazole inhibition of 6β-hydroxytestosterone formation, recombinant CYP3A7; type: biochemical
[11] = molecular target: T2, CYP3A5; assay: Fluconazole inhibition of 6β-hydroxytestosterone formation, recombinant CYP3A5; type: biochemical
[12] = cited from earlier work; for sildenafil clearance (CL): 36 term neonates, i.v. sildenafil; for Sildenafil CL Observed / Sildenafil Vss Observed: PopPK typical value scaled to 70 kg
[13] = PopPK, cited from earlier work
[14] = system: CYP3A4/5/7; settings: read-out: KM CYP3A4/5/7 sink; remainder of sildenafil metabolites; fixed; ref [27]; cited from earlier work
[15] = adults with pulmonary arterial hypertension; ref [44]; cited from earlier work
[16] = system: phosphodiesterase type 5; settings: ref [37], cited from earlier work
[17] = system: CYP2C9; settings: DMS formation, ref [12], cited from earlier work
[18] = children 1 to 17 years; low dose 10 mg in children > 20 kg; ref [24]; cited from earlier work

T1 sequence (P24462 whole entry): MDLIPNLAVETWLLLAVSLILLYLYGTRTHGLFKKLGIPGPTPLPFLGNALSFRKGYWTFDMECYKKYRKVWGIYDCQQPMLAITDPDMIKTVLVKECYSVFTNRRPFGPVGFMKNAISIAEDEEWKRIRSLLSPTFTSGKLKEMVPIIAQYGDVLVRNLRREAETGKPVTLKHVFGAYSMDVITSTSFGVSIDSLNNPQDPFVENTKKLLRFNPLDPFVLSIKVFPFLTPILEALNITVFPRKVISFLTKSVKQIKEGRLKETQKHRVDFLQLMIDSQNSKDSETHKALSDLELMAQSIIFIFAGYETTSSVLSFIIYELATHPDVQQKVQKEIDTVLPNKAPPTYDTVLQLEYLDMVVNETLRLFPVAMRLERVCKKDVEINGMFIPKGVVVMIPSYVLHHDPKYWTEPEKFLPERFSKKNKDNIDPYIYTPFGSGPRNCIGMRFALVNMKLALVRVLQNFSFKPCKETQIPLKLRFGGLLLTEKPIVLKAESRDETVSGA
T3 sequence (P08684 2-503 limits assumed): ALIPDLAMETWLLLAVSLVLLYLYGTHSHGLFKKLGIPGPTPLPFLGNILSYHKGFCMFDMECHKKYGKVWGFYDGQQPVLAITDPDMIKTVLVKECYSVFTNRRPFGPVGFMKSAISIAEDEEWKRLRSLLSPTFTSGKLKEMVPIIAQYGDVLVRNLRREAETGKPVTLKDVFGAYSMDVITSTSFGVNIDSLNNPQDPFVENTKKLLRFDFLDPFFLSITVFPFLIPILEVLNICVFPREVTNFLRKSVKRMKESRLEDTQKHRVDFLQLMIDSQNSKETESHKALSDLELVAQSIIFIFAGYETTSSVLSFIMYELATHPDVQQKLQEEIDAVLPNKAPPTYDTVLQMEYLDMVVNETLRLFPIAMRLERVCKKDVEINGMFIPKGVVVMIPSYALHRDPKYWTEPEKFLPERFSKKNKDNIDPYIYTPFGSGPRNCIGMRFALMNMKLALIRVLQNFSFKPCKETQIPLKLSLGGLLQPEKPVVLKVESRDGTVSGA
T2 sequence (P20815 whole entry): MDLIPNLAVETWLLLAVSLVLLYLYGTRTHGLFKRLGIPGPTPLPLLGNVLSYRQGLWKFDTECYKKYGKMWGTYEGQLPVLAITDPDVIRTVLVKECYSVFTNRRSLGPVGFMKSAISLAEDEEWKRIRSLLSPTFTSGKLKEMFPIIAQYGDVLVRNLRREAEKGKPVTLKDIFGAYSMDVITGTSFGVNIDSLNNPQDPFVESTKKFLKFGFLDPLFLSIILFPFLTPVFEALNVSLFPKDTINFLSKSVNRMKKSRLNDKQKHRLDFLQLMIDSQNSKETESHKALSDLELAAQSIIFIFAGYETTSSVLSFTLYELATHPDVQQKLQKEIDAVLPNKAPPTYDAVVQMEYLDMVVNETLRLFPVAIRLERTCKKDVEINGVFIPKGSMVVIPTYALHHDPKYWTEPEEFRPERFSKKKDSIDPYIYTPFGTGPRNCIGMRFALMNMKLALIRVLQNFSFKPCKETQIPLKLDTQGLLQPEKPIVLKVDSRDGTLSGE

Question: Which “fu, predominant plasma binding protein” value [1] does the source give for CCCc1nn(C)c2c(=O)[nH]c(-c3cc(S(=O)(=O)N4CCNCC4)ccc3OCC)nc12 [DMS, N-desmethylsildenafil] here?
Answer: 0.04 (AAG)

Question: And the “DMS AUC0-24 Fold Change observed” value [2]?
Answer: 1.7

Question: What about the “in vitro formation kinetic intrinsic clearance (CLint) for DMS” value ([3]; CYP3A7) of the same compound?
Answer: 0.079 μL/min/pmol CYP3A

Question: What about the “DMS AUC Observed” value ([4]; 25 mg sildenafil single oral dose, AUC0–∞, ref [47]) of the same compound?
Answer: 147 ng·h/mL

Question: And the “DMS AUC Observed” value ([4]; 50 mg sildenafil single oral dose, AUC0–∞, ref [47])?
Answer: 328 ng·h/mL

Question: And the “DMS AUC Observed” value ([4]; 100 mg sildenafil single oral dose, AUC0–∞, ref [47])?
Answer: 776 ng·h/mL

Question: What about the “DMS AUC Observed” value ([4]; 200 mg sildenafil single oral dose, AUC0–∞, ref [47]) of the same compound?
Answer: 1822 ng·h/mL

Question: And the “DMS AUC Observed” value ([4]; sildenafil 25 mg/25-minute infusion i.v., AUC0–∞, ref [13])?
Answer: 147 ng·h/mL

Question: And the “DMS AUC Ratio simulated/observed” value ([5]; 25 mg sildenafil single oral dose)?
Answer: 1.01

Question: And the “DMS AUC Ratio simulated/observed” value ([5]; 50 mg sildenafil single oral dose)?
Answer: 0.94

Question: What about the “DMS AUC Ratio simulated/observed” value ([5]; 100 mg sildenafil single oral dose) of the same compound?
Answer: 0.85

Question: And the “DMS AUC Ratio simulated/observed” value ([5]; 200 mg sildenafil single oral dose)?
Answer: 0.79

Question: What about the “DMS AUC Ratio simulated/observed” value ([5]; sildenafil 25 mg/25-minute infusion i.v.) of the same compound?
Answer: 1.87

Question: What about the “in vitro formation kinetic intrinsic clearance (CLint) for DMS” value ([6]; CYP3A5, ref [18]) of the same compound?
Answer: 0.788 μL/min/pmol CYP3A

Question: What about the Water solubility [7] of the same compound?
Answer: 0.419 mg/mL

Question: And the pKa [7]?
Answer: 7.16

Question: What about the “in vitro formation kinetic intrinsic clearance (CLint) for DMS” value ([8]; CYP3A4, ref [18]) of the same compound?
Answer: 0.733 μL/min/pmol CYP3A

Question: Which Alpha ([9]; mixed model, value (90% CI)) does the source give for OC(Cn1cncn1)(Cn1cncn1)c1ccc(F)cc1F [Fluconazole, fluconazole] here?
Answer: 16.6 (6.1–178)

Question: And the Inhibition type ([9]; recombinant CYP3A4, testosterone probe)?
Answer: mixed competitive inhibitor

Question: What about the KI uncompetitive ([9]; value (90% CI)) of the same compound?
Answer: 83.1 (67.4–102.9) μM

Question: What about the Alpha ([10]; mixed model, value (90% CI)) of the same compound?
Answer: 13.5 (1.8–∞)

Question: What about the Inhibition type ([10]; recombinant CYP3A7, testosterone probe) of the same compound?
Answer: mixed competitive inhibitor

Question: And the KI uncompetitive ([10]; value (90% CI))?
Answer: 389.0 (266.7–610.3) μM

Question: What about the Ki ([11]; KI competitive, value (90% CI)) of the same compound?
Answer: 70.8 µM

Question: What about the Ki ([11]; KI global, net value of mixed model, value (90% CI), triplicates) of the same compound?
Answer: 182 µM

Question: What about the Alpha ([11]; mixed model, value (90% CI)) of the same compound?
Answer: 2.6 (0.5–13.9)

Question: And the Inhibition type ([11]; recombinant CYP3A5, testosterone probe)?
Answer: mixed competitive inhibitor

Question: And the KI uncompetitive ([11]; value (90% CI))?
Answer: 238.7 (183.2–318.9) μM

Question: With CCCc1nn(C)c2c(=O)[nH]c(-c3cc(S(=O)(=O)N4CCN(C)CC4)ccc3OCC)nc12 [Sildenafil, sildenafil] as the compound, how does the “fu, predominant plasma binding protein” value [1] read?
Answer: 0.04 (AAG)

Question: What about the “protein binding of sildenafil” value ([1]; infants, ref [20]) of the same compound?
Answer: 93.9%

Question: What about the “sildenafil clearance (CL)” value ([12]; 7 days of age, ref [19]) of the same compound?
Answer: 2.58 L/h

Question: What about the “sildenafil clearance (CL)” value ([12]; day 1, ref [19]) of the same compound?
Answer: 0.84 L/h

Question: And the “Sildenafil CL Observed” value ([12]; Preterm infants, ref [21])?
Answer: 27.8 (33.3%)^b,e liters/hour

Question: And the “Sildenafil Vss Observed” value ([12]; Preterm infants, ref [21])?
Answer: 144 (N/A)^b,e liters

Question: And the “Sildenafil CL Observed” value ([12]; Term neonates, ref [19])?
Answer: 24.7 (54.7%)^b,f liters/hour

Question: And the “Sildenafil Vss Observed” value ([12]; Term neonates, ref [19])?
Answer: 456 (N/A)^b,f liters

Question: And the “Vss in full-term neonates, not scaled” value ([12]; full-term neonates, ref [20])?
Answer: 22.4 L

Question: What about the Km ([3]; read-out: KM CYP3A7 DMS, DMS formation) of the same compound?
Answer: 5.71 µM

Question: What about the “decrease in sildenafil clearance by fluconazole” value ([13]; 11 infants 2–121 days old, 3 with fluconazole, nasogastric tube, ref [20]) of the same compound?
Answer: 47%

Question: What about the “decrease in sildenafil CL by fluconazole” value ([13]; 34 preterm infants, 4 with fluconazole, ref [21]) of the same compound?
Answer: 59%

Question: What about the “Sildenafil AUC Observed” value ([4]; 10 mg i.v. bolus, adults with pulmonary arterial hypertension, AUC0–τ (8 hours), ref [49]) of the same compound?
Answer: 330 ng·h/mL

Question: And the “Sildenafil AUC Observed” value ([4]; 25 mg single oral dose, healthy men, AUC0–∞, ref [47])?
Answer: 361 ng·h/mL

Question: And the “Sildenafil AUC Observed” value ([4]; 25 mg/25-minute infusion i.v., healthy adult men, AUC0–∞, ref [13])?
Answer: 971 ng·h/mL

Question: And the “Sildenafil AUC Observed” value ([4]; 50 mg single oral dose, healthy men, AUC0–∞, ref [47])?
Answer: 738 ng·h/mL

Question: And the “Sildenafil AUC Observed” value ([4]; 50 mg/50-minute infusion i.v., healthy men, AUC0–∞, ref [47])?
Answer: 1291 ng·h/mL

Question: What about the “Sildenafil AUC Observed” value ([4]; 80 mg p.o. t.i.d. after 20 mg t.i.d. for 3 days, healthy men, AUC0–τ, ref [48]) of the same compound?
Answer: 1720 ng·h/mL

Question: What about the “Sildenafil AUC Observed” value ([4]; 100 mg single oral dose, healthy men, AUC0–∞, ref [47]) of the same compound?
Answer: 1685 ng·h/mL

Question: What about the “Sildenafil AUC Observed” value ([4]; 200 mg single oral dose, healthy men, AUC0–∞, ref [47]) of the same compound?
Answer: 3755 ng·h/mL

Question: And the “Sildenafil CL Observed” value ([4]; Healthy adults, PopPK, mean (inter-individual variability), ref [50])?
Answer: 29.5 (31.2%)^d liters/hour

Question: What about the “Sildenafil Vss Observed” value ([4]; Healthy adults, PopPK, ref [50]) of the same compound?
Answer: 107 (N/A)^d liters

Question: What about the “Sildenafil CL Observed” value ([4]; Patients with PAH, 10 mg i.v. bolus, ref [49]) of the same compound?
Answer: 32.2 (N/A)^c liters/hour

Question: What about the “Sildenafil Vss Observed” value ([4]; Patients with PAH, reported as terminal phase volume (Vz), ref [49]) of the same compound?
Answer: 137 (N/A)^c liters

Question: And the Km [14]?
Answer: 15 µM

Question: What about the “concentration of half-maximal effect, pulmonary vascular resistance” value [15] of the same compound?
Answer: 17 ng/mL

Question: What about the “concentration that produces the maximal effect, pulmonary vascular resistance” value [15] of the same compound?
Answer: around 100 ng/mL

Question: What about the Km ([6]; read-out: KM CYP3A5 DMS, DMS formation, ref [27]) of the same compound?
Answer: 14.7 µM

Question: And the pKa [7]?
Answer: 5.97

Question: And the “unbound inhibition of in vitro phosphodiesterase type 5 activity” value (“unbound inhibition” for short) ([16]; at steady-state Cmax 47 ng/mL)?
Answer: 53%

Question: What about the “unbound inhibition” value ([16]; at steady-state Cmax 140 ng/mL) of the same compound?
Answer: 77%

Question: And the “unbound inhibition” value ([16]; at steady-state Cmax 373 ng/mL)?
Answer: 90%

Question: And the “Vmax CYP3A4 DMS” value ([8]; DMS formation, ref [27])?
Answer: 1.00 pmol/min/pmol

Question: And the Km ([8]; read-out: KM CYP3A4 DMS, DMS formation, ref [27])?
Answer: 15 µM

Question: What about the “Vmax CYP2C9 DMS” value [17] of the same compound?
Answer: 78 pmol/min/mg

Question: What about the Km ([17]; read-out: KM CYP2C9 DMS) of the same compound?
Answer: 27 µM

Question: What about the “efficacy of the low dose” value [18] of the same compound?
Answer: ineffective
